Patent US5543498A, “Peptides to overcome inhibition of nerve growth” (The General Hospital Corporation, priority 1995, dated 1996)
“Also recorded” adds a separate entry of the source. No end group written: not given here.

Key:
[1] = tested on: Chick dorsal root ganglion (DRG) neurons; format: cell-based
Experimental: Chick DRGs from embryonic day 7 (E7) were explanted onto laminin-coated chamber slides in F12 medium with 10 ng/ml nerve growth factor and 10% fetal bovine serum. After 20 hours, peptide solutions or phosphate-buffered saline (PBS) in 1 mM DTT was added to the explants (225 μl) and the mixture incubated at 27° C. for one hour. BME, prepared following the procedure of J. A. Raper and J. P. Kapfhammer, Neuron 2:21 (1990), was added to the explants and incubated for 30 minutes. For each explant, all growth cones were scored as collapsed or fan-shaped (M. Igarashi et al., Science 259:77 (1993)).
In another series of experiments the GAP-43 1-10 peptide was added into the culture medium at 10^-8 M one hour prior to the addition of BME. After 30 minutes incubation with BME, the explant was fixed in glutaraldehyde and its growth cones were scored.
After exposing the PTX treated neurons to BME and the GAP-43 1-10, the amount of growth cone collapse was measured.
The procedure described in Example 2 was followed with the exception that one hour prior to the addition of BME (0.15 mg protein/ml) to the DRG culture medium, either the methionine or tyrosine mutant peptide was introduced at a concentration of 10^-4 M.

[2] = target: Go (Homo sapiens, UniProt P09471); assay: GTPγ S binding to Go (nitrocellulose filtration assay); format: biochemical; settings: for effect of mutant decapeptides on GTPγ S binding to Go: peptide 250 μM, binding without peptides = 100%; for effect on GTPγ S binding to Go, dose response: oxidized (performic acid) vs control peptide, same concentration range
Sequence of Go (P09471 whole entry): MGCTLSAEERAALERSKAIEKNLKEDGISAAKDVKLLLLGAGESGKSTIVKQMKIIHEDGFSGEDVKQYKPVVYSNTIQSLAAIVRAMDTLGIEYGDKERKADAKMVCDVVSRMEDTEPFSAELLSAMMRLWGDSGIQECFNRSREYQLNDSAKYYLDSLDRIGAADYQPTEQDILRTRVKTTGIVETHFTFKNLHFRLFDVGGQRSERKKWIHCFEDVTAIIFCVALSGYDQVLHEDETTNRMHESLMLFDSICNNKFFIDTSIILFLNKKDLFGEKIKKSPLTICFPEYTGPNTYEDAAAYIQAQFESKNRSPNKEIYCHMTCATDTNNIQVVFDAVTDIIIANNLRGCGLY
Experimental: The GAP-43 1-10 peptide was oxidized using performic acid according to the procedures of A. Roher et al., Proc. Natl. Acad. Sci. USA 83:2662 (1986). Briefly, 10 mM peptide was incubated with formic acid solution containing 3% H2 O2 at 25° C. for one hour. The activation state of Go was determined in a nitrocellulose filtration assay as described by S. M. Strittmatter et al., Proc. Natl. Acad. Sci. USA 90:5327 (1993).
Both cysteine residues at positions 3 and 4 in the native GAP-43 1-10 peptide were replaced with methionine, tyrosine, aspartate, glutamate, lysine, arginine, serine, and tryptophan. These mutant peptides were tested for their ability to influence GTPγ S binding to Go.

Substance: [3Y, 4Y]GAP43 (1-10) (MLYYMRRTKQ) [peptide-Y, GAP-43 1-10 peptide with both cysteines at positions 3 and 4 replaced with tyrosine]
- shift of BME dose response: BME needed to cause 50% collapse ([1]; DRG, 10^-4 M peptide, relative to no peptide): about twice
- inhibition of growth cone collapse induced by BME ([1]; DRG, BME 0.15 mg protein/ml, peptide 10^-4 M one hour before BME): approximately 30%
- effect of the peptides by themselves on growth cones ([1]; doses used for the BME dose response (FIG. 3C)): do not have any evident effect by themselves
- effect of mutant decapeptides on GTPγ S binding to Go [2]: attenuate GTPγ S binding to Go; also recorded: antagonist of G protein stimulation
- effect of mutant decapeptides on GTPγ S binding to Go ([2]; listed as tyrosine): inhibits GTPγ S binding to Go

Substance: oxidized GAP-43 1-10 peptide: GAP-43 1-10 peptide oxidized using performic acid (MLCCMRRTKQ; also: oxidized using performic acid)
- effect on GTPγ S binding to Go, dose response ([2]; listed as Oxidation of the GAP-43 1-10 N terminus): dose-dependent inhibition
- effect on GTPγ S binding to Go, dose response ([2]; listed as Oxidation of the GAP-43 1-10 N-terminus): dose-dependent inhibition
- effect on GTPγ S binding to Go, dose response ([2]; listed as oxidation of the peptide by performic acid): inhibitory for Go

Substance: pertussis toxin [PTX, reference compound]
- effect on growth cone collapse induced by BME ([1]; PTX 20 ng/ml, BME 0.075 mg/ml): do not inhibit the collapse induced by BME
- effect on GAP-43 1-10 peptide potentiation of BME-induced growth cone collapse ([1]; PTX 20 ng/ml, BME 0.075 mg/ml plus 10^-8 M GAP-43 1-10 peptide, listed as pertussis toxin): blocks
